Data taken from US7208266B2, “Endogenous coagulation activator compounds —use in exploring endogenous coagulation” (Societe Diagnostica-Stago, priority 2001, dated 2007).

Legend:
Type in all cases: biochemical
endogenous coagulation [1] = assay: APTT coagulation time, reagents from amides or esters of gallic acid (Example 2); conditions: gallic acid derivative 100 μM
endogenous coagulation [2] = assay: as above; conditions: for Coagulation time, CCN / Coagulation time, CCP / Coagulation time, Heparins Batch 0811 / Coagulation time, Heparins Batch 1706 / Coagulation time, Lupus Batch 021 / Coagulation time, Pool N LIK 800: gallic acid derivative 100 μM
Description: Thus, the invention also concerns a method for measuring the activated partial thromoboplastin time (APTT) comprising the steps of: • bringing a platelet-depleted plasma sample into contact with compounds or compositions in accordance with the invention, in the presence of substitutes for the phospholipids of the platelet membrane, under conditions that allow activation of the endogenous coagulation pathway; • adding Ca^2+ ions in a quantity equivalent to the quantity of these ions that have been complexed in the plasma sample; • measuring the time required to transform fibrinogen into fibrin.
In particular, within the context of carrying out the above method, the plasma sample is constituted by a platelet-depleted plasma and a coagulation activator is incubated with the plasma for a period of about 2 to 5 minutes, at 37° C. The phospholipid membrane substitutes are either added from the start of the reaction, or mixed with the activator, or added individually during the reaction.
Then the calcium ions are added, for example in the form of calcium chloride in a concentration in the range 20 mM to 25 mM. The time required for fibrin formation is then measured.
In the next example, the coagulation times for different plasmas were determined from APTT reagents obtained from amides or esters of gallic acid. • normal plasmas=pool of equivalent quantities of plasmas from normal subjects; • CCN=coag. control normal: control plasma, normal level; • CCP=coag. control patho: control plasma, disease level; • heparins=plasmas from patient receiving an anticoagulating treatment based on non-fractionated heparin in the form of sodium or calcium salts; • lupus=plasma from a patient presenting with Lupus anticoagulant Syndrome; • def.f VIIIc=plasma from a patient presenting with a f VIIIc deficit (haemophilia A).

endogenous coagulation [3] = assay: APTT coagulation time versus ethylene glycol gallate concentration (Example 6)
Experimental: The coagulating activity of an APTT reagent requires the joint action of two active principles: • a molecule activating the contact phase of the endogenous pathway. In fact, this was ethylene glycol gallate activated by heating to 80° C.; • a substitute for the phospholipids of the platelet membrane, cephaline, obtained by extracting rabbit brains with chloroform;
Optimum activity of the APTT reagent thus constituted depends on the concentrations of ethylene glycol gallate and cephaline.
The following tables show the results obtained for representative plasmas for different disorders and for some controls.

endogenous coagulation [4] = assay: APTT coagulation time, activation kinetics of ethylene glycol gallate heated at 80° C. (Example 3); conditions: 500 μM in solution buffered to pH 7.00, after heating for 24 hours at 80° C.
Experimental: After heating for 24 hours at 80° C., 500 μM of ethylene glycol gallate in solution buffered to a pH of 7.00 became active in an APTT coagulation test.
The procoagulating activity of the ethylene glycol gallate solution was compared with that of a reference reagent: CK-PREST, an APTT reagent in which the activator is kaolin. The instrument used to measure the coagulation time was an automated STA Diagnostica Stago haemostasis instrument (series n° 307).
The test plasmas were quality control plasmas:
CCN=coag control normal; CCP=coag control patho, batch n° 980901.
APTT reagent produced=ethylene glycol gallate, 500 μM, oxidised at 80° C.+Tricine, […], pH 7.00+cephaline (substitute for platelet phospholipids).

[5] = Ethylene Glycol gallate 1000 μM

ethylene diamine gallate [H2N—(CH2)n—NH2 n=2]
Coagulation time, f VII def 25% (endogenous coagulation [1]): 113.0 s
Coagulation time, CCN (endogenous coagulation [2]): 138.1 s
Coagulation time, CCP (endogenous coagulation [2]): 177.9 s
Coagulation time, Heparins Batch 0811 (endogenous coagulation [2]): >300.0 s
Coagulation time, Heparins Batch 1706 (endogenous coagulation [2]): 228.4 s
Coagulation time, Lupus Batch 021 (endogenous coagulation [2]): 167.6 s
Coagulation time, Pool N LIK 800 (endogenous coagulation [2]): 111.5 s

O=C(OCCO)c1cc(O)c(O)c(O)c1 [ethylene glycol gallate]
Coagulation time, f VII def 25% (endogenous coagulation [1]): 35.6 s
Coagulation time Control batch n° 80901 Normal (endogenous coagulation [3]; Ethylene Glycol gallate 10 μM): 130.6 s
Coagulation time Control batch n° 80901 Path (endogenous coagulation [3]; Ethylene Glycol gallate 10 μM): >140.0 s
Coagulation time Plasma (LA) MA 030 (endogenous coagulation [3]; Ethylene Glycol gallate 10 μM): >140.0 s
Coagulation time Plasma def f VIIIc (endogenous coagulation [3]; Ethylene Glycol gallate 10 μM): 121.9 s
Coagulation time Plasmas Heparins Batch 1635 (endogenous coagulation [3]; Ethylene Glycol gallate 10 μM): >140.0 s
Coagulation time Plasmas Heparins Batch 1726 (endogenous coagulation [3]; Ethylene Glycol gallate 10 μM): >140.0 s
Coagulation time Control batch n° 80901 Normal (endogenous coagulation [3]; Ethylene Glycol gallate 25 μM): 124.5 s
Coagulation time Control batch n° 80901 Path (endogenous coagulation [3]; Ethylene Glycol gallate 25 μM): 103.3 s
Coagulation time Plasma (LA) MA 030 (endogenous coagulation [3]; Ethylene Glycol gallate 25 μM): 103.3 s
Coagulation time Plasma def f VIIIc (endogenous coagulation [3]; Ethylene Glycol gallate 25 μM): 73.1 s
Coagulation time Plasmas Heparins Batch 1635 (endogenous coagulation [3]; Ethylene Glycol gallate 25 μM): >140.0 s
Coagulation time Plasmas Heparins Batch 1726 (endogenous coagulation [3]; Ethylene Glycol gallate 25 μM): >140.0 s
Coagulation time Control batch n° 80901 Normal (endogenous coagulation [3]; Ethylene Glycol gallate 50 μM): 88.6 s
Coagulation time Control batch n° 80901 Path (endogenous coagulation [3]; Ethylene Glycol gallate 50 μM): 99.6 s
Coagulation time Plasma (LA) MA 030 (endogenous coagulation [3]; Ethylene Glycol gallate 50 μM): 66.6 s
Coagulation time Plasma def f VIIIc (endogenous coagulation [3]; Ethylene Glycol gallate 50 μM): 44.8 s
Coagulation time Plasmas Heparins Batch 1635 (endogenous coagulation [3]; Ethylene Glycol gallate 50 μM): 73.1 s
Coagulation time Plasmas Heparins Batch 1726 (endogenous coagulation [3]; Ethylene Glycol gallate 50 μM): >140.0 s
Coagulation time Control batch n° 80901 Normal (endogenous coagulation [3]; Ethylene Glycol gallate 75 μM): 46.5 s
Coagulation time Control batch n° 80901 Path (endogenous coagulation [3]; Ethylene Glycol gallate 75 μM): 67.4 s
Coagulation time Plasma (LA) MA 030 (endogenous coagulation [3]; Ethylene Glycol gallate 75 μM): 50.4 s
Coagulation time Plasma def f VIIIc (endogenous coagulation [3]; Ethylene Glycol gallate 75 μM): 38.6 s
Coagulation time Plasmas Heparins Batch 1635 (endogenous coagulation [3]; Ethylene Glycol gallate 75 μM): 48.3 s
Coagulation time Plasmas Heparins Batch 1726 (endogenous coagulation [3]; Ethylene Glycol gallate 75 μM): 86.6 s
Coagulation time Control batch n° 80901 Normal (endogenous coagulation [3]; Ethylene Glycol gallate 100 μM): 38.4 s
Coagulation time Control batch n° 80901 Path (endogenous coagulation [3]; Ethylene Glycol gallate 100 μM): 46.2 s
Coagulation time Plasma (LA) MA 030 (endogenous coagulation [3]; Ethylene Glycol gallate 100 μM): 47.5 s
Coagulation time Plasma def f VIIIc (endogenous coagulation [3]; Ethylene Glycol gallate 100 μM): 38.2 s
Coagulation time Plasmas Heparins Batch 1635 (endogenous coagulation [3]; Ethylene Glycol gallate 100 μM): 48.0 s
Coagulation time Plasmas Heparins Batch 1726 (endogenous coagulation [3]; Ethylene Glycol gallate 100 μM): 80.0 s
Coagulation time Control batch n° 80901 Normal (endogenous coagulation [3]; Ethylene Glycol gallate 200 μM): 35.2 s
Coagulation time Control batch n° 80901 Path (endogenous coagulation [3]; Ethylene Glycol gallate 200 μM): 42.5 s
Coagulation time Plasma (LA) MA 030 (endogenous coagulation [3]; Ethylene Glycol gallate 200 μM): 46.7 s
Coagulation time Plasma def f VIIIc (endogenous coagulation [3]; Ethylene Glycol gallate 200 μM): 37.7 s
Coagulation time Plasmas Heparins Batch 1635 (endogenous coagulation [3]; Ethylene Glycol gallate 200 μM): 48.5 s
Coagulation time Plasmas Heparins Batch 1726 (endogenous coagulation [3]; Ethylene Glycol gallate 200 μM): 75.4 s
Coagulation time Control batch n° 80901 Normal (endogenous coagulation [3]; Ethylene Glycol gallate 300 μM): 34.3 s
Coagulation time Control batch n° 80901 Path (endogenous coagulation [3]; Ethylene Glycol gallate 300 μM): 39.6 s
Coagulation time Plasma (LA) MA 030 (endogenous coagulation [3]; Ethylene Glycol gallate 300 μM): 44.2 s
Coagulation time Plasma def f VIIIc (endogenous coagulation [3]; Ethylene Glycol gallate 300 μM): 37.5 s
Coagulation time Plasmas Heparins Batch 1635 (endogenous coagulation [3]; Ethylene Glycol gallate 300 μM): 47.7 s
Coagulation time Plasmas Heparins Batch 1726 (endogenous coagulation [3]; Ethylene Glycol gallate 300 μM): 73.7 s
Coagulation time Control batch n° 80901 Normal (endogenous coagulation [3]; Ethylene Glycol gallate 400 μM): 32.9 s
Coagulation time Control batch n° 80901 Path (endogenous coagulation [3]; Ethylene Glycol gallate 400 μM): 39.6 s
Coagulation time Plasma (LA) MA 030 (endogenous coagulation [3]; Ethylene Glycol gallate 400 μM): 43.4 s
Coagulation time Plasma def f VIIIc (endogenous coagulation [3]; Ethylene Glycol gallate 400 μM): 37.2 s
Coagulation time Plasmas Heparins Batch 1635 (endogenous coagulation [3]; Ethylene Glycol gallate 400 μM): 47.0 s
Coagulation time Plasmas Heparins Batch 1726 (endogenous coagulation [3]; Ethylene Glycol gallate 400 μM): 75.1 s
Coagulation time Control batch n° 80901 Normal (endogenous coagulation [3]; Ethylene Glycol gallate 500 μM): 32.6 s
Coagulation time Control batch n° 80901 Path (endogenous coagulation [3]; Ethylene Glycol gallate 500 μM): 48.5 s
Coagulation time Plasma (LA) MA 030 (endogenous coagulation [3]; Ethylene Glycol gallate 500 μM): 43.0 s
Coagulation time Plasma def f VIIIc (endogenous coagulation [3]; Ethylene Glycol gallate 500 μM): 37.5 s
Coagulation time Plasmas Heparins Batch 1635 (endogenous coagulation [3]; Ethylene Glycol gallate 500 μM): 47.3 s
Coagulation time Plasmas Heparins Batch 1726 (endogenous coagulation [3]; Ethylene Glycol gallate 500 μM): 76.1 s
Coagulation time Control batch n° 80901 Normal (endogenous coagulation [3]; [5]): 33.4 s
Coagulation time Control batch n° 80901 Path (endogenous coagulation [3]; [5]): 51.5 s
Coagulation time Plasma (LA) MA 030 (endogenous coagulation [3]; [5]): 42.5 s
Coagulation time Plasma def f VIIIc (endogenous coagulation [3]; [5]): 37.1 s
Coagulation time Plasmas Heparins Batch 1635 (endogenous coagulation [3]; [5]): 47.9 s
Coagulation time Plasmas Heparins Batch 1726 (endogenous coagulation [3]; [5]): 76.3 s
Coagulation times compared with the reference reagent, CK-Prest (endogenous coagulation [2]; all plasmas of the table, derivative 100 μM): nearest results to those obtained with the reference reagent
Coagulation time, CCN (endogenous coagulation [2]): 32.7 s
Coagulation time, CCP (endogenous coagulation [2]): 50.5 s
Coagulation time, Heparins Batch 0811 (endogenous coagulation [2]): 112.5 s
Coagulation time, Heparins Batch 1706 (endogenous coagulation [2]): 65.7 s
Coagulation time, Lupus Batch 021 (endogenous coagulation [2]): 45.7 s
Coagulation time, Pool N LIK 800 (endogenous coagulation [2]): 37.4 s
Activity in an APTT coagulation test (endogenous coagulation [4]): became active

N[C@@H](CO)C(=O)O [H2N—CH—(CH2OH)—COOH]
Coagulation time, f VII def 25% (endogenous coagulation [1]): 153.0 s
Coagulation time, CCN (endogenous coagulation [2]): 210.9 s
Coagulation time, CCP (endogenous coagulation [2]): 189.3 s
Coagulation time, Heparins Batch 0811 (endogenous coagulation [2]): >300.0 s
Coagulation time, Lupus Batch 021 (endogenous coagulation [2]): 232.6 s
Coagulation time, Pool N LIK 800 (endogenous coagulation [2]): 245.0 s
